What was measured:
cerebrocortical neurons = test: NMDA-induced neuronal cell death (excitotoxicity) in cerebrocortical cultures; conditions: ZnPP 10 μM added simultaneously with NEPP11
Experimental: We stained the cultures with both anti-MAP-2 and anti-NeuN monoclonal antibodies to label neuronal dendrites and nuclei, respectively. Vehicle or NEPP11 (0.7 μM) was added to cerebrocortical cultures (E17 and DIV14-21) 60 min before treatment with NMDA (50 μM) for 15 min. The cultures were then incubated for 20 h and subsequently stained with anti-MAP-2 and anti-NeuN and with Hoechst dye. Apoptotic nuclei were identified by morphological changes seen with Hoechst staining. […] We also added zinc protoporphyrin (ZnPP, 10 μM), a relatively specific HO-1 antagonist, simultaneously with NEPP11. The number of apoptotic neurons was assessed by determining the apoptotic index [(number of condensed nuclei in MAP-2 or NeuN-positive cells)/(number of total MAP-2 or NeuN-positive cells)×100%], as reported by Bonfoco et al. (Proc. Natl. Acad. Sci. USA 92:7162-7166, 1995).
Cerebrocortical cultures were prepared from embryonic day-17 Sprague-Dawley rats and used at day 14-21 in vitro (DIV14-21), as described (Bonfoco et al., Proc. Natl. Acad. Sci. USA 92:7162-7166, 1995). To induce predominantly neuronal apoptosis (rather than necrosis), we exposed cortical cultures to 50 mM NMDA plus 5 mM glycine/1.8 mM CaCl2 in nominally Mg^2+-free Earle's balanced salt solution for 15 min (Bonfoco et al., Proc. Natl. Acad. Sci. USA 92:7162-7166, 1995). After exposure to NMDA, the cultures were returned to normal medium containing vehicle or NEPP11 and incubated for 20 hr before analyzing cell survival. To assess the ability of NEPP compounds to block NMDA-induced neuronal apoptosis, we identified apoptotic neurons by double immunofluorescence with anti-NeuN and anti-MAP-2 to specifically label neurons and with Hoechst staining for nuclear morphology to detect apoptosis. The percentage of neurons and non-neuronal cells in our cultures was 33.6±4.9% and 66.4±4.4% (n=4), respectively.
In addition, we used mature cortical cultures (E17, DIV21) to assess excitotoxicity because functional NMDA receptors are expressed on these neurons.

PC12h cells = test: Oxidative glutamate toxicity in PC12h cells (MTT assay); assay type: cell-based
Experimental: PC12h cells, PC12hW1B cells, and PC12hD5D cells (expressing Nrf2DN) were incubated with various concentrations of glutamate for 20 h. […] Various concentrations of CA were added to PC12, PC or PC12hD5D cells 1 h prior to exposure to 5 mM glutamate for 20 h.
PC12h and COST cell cultures.
Thus, we examined whether CA could protect PC12h cells from such insults. We prepared naïve PC12h cells, Nrf2WT-expressing PC12h cells (PC12hW1B), and Nrf2DN-expressing PC12h cells (PC12hD5D). In order to examine the effects of the Keap1/Nrf2 pathway on cell survival in the face of oxidative stress, we exposed the cells to a high concentration of glutamate. […] To visualize surviving and dead cells, we stained cultures with fluorescein diacetate (FDA) and propidium iodide (PI), respectively. Additionally, cell survival was quantified by the 3-(4,5-dimethylthiazol-2-yl)-2,5-diphenyl tetrazolium bromide (MTT) assay (FIG. 4A).
We next tested the hypothesis that CA-induced neuroprotection is mediated by the Keap1/NRf2 pathway.

[1] = system: mixed neuronal/glial cortical cultures; test: Site of accumulation of biotin-labeled compound in mixed neuronal/glial cortical cultures; assay type: cell-based, rat; conditions: E17 DIV21
Experimental: Activation of the Keap1/Nrf2 pathway in Primary Cortical Cultures. To begin to test the effects of NEPP compounds on primary cerebrocortical neurons, we treated mixed neuronal/glial cortical cultures with NEPP6-biotin and then fixed and stained with rhodamine conjugated to streptavidin to determine the site of NEPP accumulation. Cortical cultures treated with NEPP6-biotin (10 μM) were stained with anti-MAP-2 monoclonal and rhodamine-conjugated streptavidin antibodies and with Hoechst 33,258 dye.
Immunocytochemistry. Cultures were fixed with 3% paraformaldehyde at room temperature for 20 min. After three washes in PBS, the cells were permeabilized with 0.3% Triton X-100 for 5 min. After three additional washes in PBS, the cells were incubated at 4° C. overnight with primary antibodies. They were then washed three times in PBS containing 0.2% Tween 20 (PBS-T), and next incubated with secondary antibodies for 1 h at room temperature. Thereafter, the cells were again washed, and their nuclei stained with Hoechst 33,258 (5 μg/ml) or with DAPI (1 μg/ml) for 5 min. Stained preparations were mounted and examined by epifluorescence microscopy. The following primary antibodies were used: anti-Nrf2 antibody, anti-MAP2 and anti-NeuN antibodies to identify neurons (dendrites and nuclei, respectively), and anti-S100β antibody to identify astrocytes. […]

ARE = test: ARE(GSTYa)-luciferase reporter in PC12h cells; assay type: cell-based
Experimental: (1) pGL3-GSTYa ARE core-luciferase vector. […] The dsDNA thus obtained was inserted into the Mlu l and Bglll sites of the pGL3-promoter vector (Promega Co., Madison, Wis.).
Transient transfection and measurement of luciferase activity. PC12h cells or cerebrocortical cultures (E17, DIV21) were incubated for 5 h in EBSS containing 1 μg of a plasmid DNA plus Lipofectamine 2000 (Invitrogen, Carlsbad, Calif.). Transfection efficiency was normalized to β-galactosidase activity expressed by co-transfection with pSV-β-gal (Promega). For reporter gene assays, cells were transfected with 1 μg of the reporter construct [ARE(GSTYa)-luciferase] and 0.2 μg pSV-β-gal for 1 hour. […] Firefly luciferase activity and β-galactosidase activity in cell lysates were measured using a Luciferase System and β-Galactosidase Enzyme Assay System, respectively (Promega, Madison, Wis.).
Next, we examined the involvement of the Keap1/Nrf2 pathway more precisely by studying activation of the ARE. This transcription element responds to the Keap1/Nrf2 pathway; we monitored activation of the ARE by performing luciferase reporter gene assays using PC12h cells transfected with ARE(GSTYa)-luciferase (Alam et al., J. Biol. Chem. 274:26071-26077, 1999) in the presence or absence of an Nrf2 dominant-negative (DN) or Keap1 expression vector.

Keap1 [2] = test: Binding of CAB/CA to Keap1 and Keap1 deletion mutants (streptavidin precipitation); conditions: COS7 cells, 10 μM CAB
Experimental: (§1) (3) Expression vectors for HA-tagged Keap1 and Keap1 deletion mutants. These constructs were obtained from Dr. Akira Kobayashi of Tohoku University (Hosoya et al., J. Biol. Chem. 29:27244-27250, 2006; Kobayashi et al., Mol. Cell. Biol. 26:221-229, 2006).
(§2) Immunoprecipitation with agarose-immobilized streptavidin or antibody. PC12h cells (CAB- or vehicle-treated) were lysed in RIPA buffer supplemented with protease inhibitor cocktail. The lysates were centrifuged at 15,000 rpm for 10 min at 4° C., after which the supernatants were incubated with agarose-immobilized streptavidin at 4° C. for 1 h. Alternatively, for immunoprecipitation with anti-Keap1, the cell lysates were incubated with the antibody at 4° C. overnight, after which protein A immobilized on Sepharose CL-4B was added and incubation continued at 4° C. for 1 h. Then, the complexes were washed three times with rinse buffer (150 mM NaCl, 50 mM Tris-HCl [pH 7.5], 0.1% NP-40, 1 mM EDTA, and 0.02% NaN3). SDS sample buffer was added, the mixture was boiled for 5 min, and the supernatants were subjected to SDS-PAGE. Immunoblotting was then performed as described above.
(§3) CA activates the Keap1/Nrf2/ARE pathway. […] The initial reaction in this activation cascade is the binding of an electrophilic compound to specific cysteines on Keap1 protein (Hong et al., Chem. Res. Toxicol. 18: 1917-1926, 2005; Eggler et al., Proc. Nat. Acad. Sci. USA 102:10070-10075, 2005; Zhang et al., Mol. Cell. Biol. 10941-10953, 2004). Such binding initiates a cellular transcription pathway leading to induction of phase 2 enzymes (Talalay, Biofactors 12:5-11, 2000; Padmanabham et al., Mol. Cell 21:689-700, 2006; Itoh et al., Free Radic. Biol. Med. 36:1208-1213, 2004). Therefore, we examined the domains of Keap1 (designated BTB, IVR, and DGR) to determine those essential for binding to CA. Accordingly, for co-immunoprecipitation experiments, we transfected COS7 cells with DNA expressing either HA-tagged wild type Keap1 protein (HA-WT Keap1) or various deletion mutants of tagged Keap1 protein (HA-ΔBTB Keap1, HA-ΔIVR Keap1, and HA-ΔDGR Keap1). The transfected COS7 cells were then treated with vehicle or 10 μM CAB and lysed. We quantified the expression level of Keap1 protein in total cell lysates with anti-HA antibody. Each Keap1 mutant protein was expressed at a similar level of the predicted molecular weight (57 kDa for HA-ΔBTB Keap1, 53 kDa for HA-ΔIVR Keap1, and 37 kDa for HA-ΔDGR Keap1). Next, in order to detect Keap1/CAB complexes, we immunoprecipitated cell lysates with streptavidin and probed with anti-HA antibody. […] The requirement of the BTB domain for CA binding is in accord with prior results (Hong et al., Chem. Res. Toxicol. 18:1917-1926, 2005; Eggler et al., Proc. Nat. Acad. Sci. USA 102:10070-10075, 2005; Zhang et al., Mol. Cell. Biol. 24:10941-10953, 2004).
(§4) After binding of the electrophilic quinone-form of CA to Keap1 protein, activation of the Keap1/Nrf2 pathway requires nuclear translocation of Nrf2 (Talalay, Biofactors 12:5-11, 2000; Padmanabham et al., Mol. Cell 21:689-700, 2006; Itoh et al., Free Radic. Biol. Med. 36:1208-1213, 2004). Thus, we next examined the intracellular distribution of Nrf2 protein in COS7 cells by immunofluorescence.

Keap1 [3] = biological target: T1, Keap1 (Mus musculus, UniProt Q9Z2X8); test: as above; conditions: COS7 cells, HA-WT Keap1, 10 μM CAB
T1 construct: expressed in transfected cells; host or cells: COS7 cells
Experimental: as §1, §2, §3, §4

[4] = biological target: T2, bovine serum albumin (BSA) (Bos taurus, UniProt P02769); test: Adduct formation with free cysteine of BSA (streptavidin blot); assay type: binding; conditions: PBS, room temperature, 5 h, streptavidin probe
T2 construct: purchased WAKO Chemicals Inc. (Tokyo, Japan) or Sigma (St. Louis, Mo.)
Experimental: We tested whether the free cysteine of bovine serum albumin (BSA) could form an adduct with NEPP compounds. If carbon #11 on the NEPP compounds binds to this free cysteine of BSA, then pretreatment with N-ethylmaleimide (NEM), in irreversible thiol alkylating agent, would abolish this binding. […] With streptavidin as a probe, we could then detect proteins bound to NEPP6-biotin. In order to study thiols as targets of NEPP binding, BSA (1 μg per lane) was incubated with various concentrations (0-1000 μM) of N-ethylmaleimide (NEM) for 30 minutes at room temperature. Vehicle or NEPP6-biotin (10 μM) in phosphate-buffered saline (PBS) was added and the mixture was incubated at room temperature for 5 h, subjected to sodium dodecyl sulfate polyacrylamide gel electrophoresis (SDS-PAGE), and probed with peroxidase-conjugated streptavidin. The gel was also stained with Coomassie brilliant blue.

GSH = test: Total GSH levels in cortical cultures; assay type: cell-based; conditions: NEM
Experimental: Cell cultures, transfection, and glutathione (GSH) measurement. […] Transfection was performed with Lipofectamine 2000 (Invitrogen). In the reporter gene assays, firefly luciferase activity in cell lysates was measured with a luminometer (Promega). Total GSH (reduced and oxidized) was determined as described (Lee et al., Biochem. Biophys. Res. Commun. 280:286-292, 2001).
One caveat to the mechanism of NEPP and other electrophilic compounds acting at the level of Keap1 to induce HO-1 transcription is that NEPP could potentially react indiscriminately with other thiol-containing compounds in cells. To approach this question, we assessed cellular glutathione (GSH) levels to determine whether NEPP11 would affect this abundant antioxidant thiol. Nepp11 or N-ethylmaleimide (NEM) was added at t=0 and levels of total GSH were measured at the indicated times. GSH content of control cortical cultures (set arbitrarily at 100%) was 46.8±4.5 nmol/mg protein. […] In fact, this scenario seems likely, because the Keap1/Nrf2 pathway regulates the expression of γ-GCL in addition to HO-1 (Itoh et al., Mol. Cell. Biol. 24:36-45, 2004). […]
Transfections were performed with Lipofectamine 2000 (Invitrogen), and firefly luciferase activity in cell lysates was measured with a luminometer in the reporter gene assays (Promega).

T1 sequence (Q9Z2X8 whole entry): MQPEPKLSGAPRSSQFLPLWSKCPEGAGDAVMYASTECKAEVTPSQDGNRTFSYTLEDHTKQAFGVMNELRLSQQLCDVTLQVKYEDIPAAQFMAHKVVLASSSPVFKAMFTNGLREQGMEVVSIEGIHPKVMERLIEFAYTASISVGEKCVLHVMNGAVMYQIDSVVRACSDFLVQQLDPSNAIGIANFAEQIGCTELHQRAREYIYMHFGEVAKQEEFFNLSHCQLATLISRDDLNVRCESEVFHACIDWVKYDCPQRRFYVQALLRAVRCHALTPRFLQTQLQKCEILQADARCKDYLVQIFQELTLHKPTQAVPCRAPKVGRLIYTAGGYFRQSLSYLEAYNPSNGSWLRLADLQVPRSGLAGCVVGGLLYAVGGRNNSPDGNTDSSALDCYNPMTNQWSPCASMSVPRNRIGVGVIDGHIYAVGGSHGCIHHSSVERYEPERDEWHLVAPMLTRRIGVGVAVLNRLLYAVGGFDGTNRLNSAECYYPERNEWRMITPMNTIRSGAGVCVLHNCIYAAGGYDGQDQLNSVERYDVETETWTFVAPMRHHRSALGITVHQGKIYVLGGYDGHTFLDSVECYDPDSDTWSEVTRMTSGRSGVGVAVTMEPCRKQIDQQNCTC
T2 sequence (P02769 25-607): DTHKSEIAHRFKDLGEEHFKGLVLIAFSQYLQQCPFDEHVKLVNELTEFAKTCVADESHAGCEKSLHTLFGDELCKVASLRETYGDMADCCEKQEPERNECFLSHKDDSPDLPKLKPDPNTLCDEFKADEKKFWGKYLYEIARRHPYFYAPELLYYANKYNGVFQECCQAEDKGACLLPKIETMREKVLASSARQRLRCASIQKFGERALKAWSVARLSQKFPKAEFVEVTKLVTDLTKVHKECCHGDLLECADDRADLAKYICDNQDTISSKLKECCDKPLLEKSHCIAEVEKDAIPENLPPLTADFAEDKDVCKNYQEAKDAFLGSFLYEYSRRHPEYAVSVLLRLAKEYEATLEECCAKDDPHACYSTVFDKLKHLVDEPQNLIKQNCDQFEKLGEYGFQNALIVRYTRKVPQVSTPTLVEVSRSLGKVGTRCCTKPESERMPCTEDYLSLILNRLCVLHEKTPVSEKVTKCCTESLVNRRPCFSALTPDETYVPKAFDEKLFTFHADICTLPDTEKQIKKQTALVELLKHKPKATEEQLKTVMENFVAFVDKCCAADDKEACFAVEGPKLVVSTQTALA

C=CC1=C(C)c2cc3[n-]c(cc4nc(cc5[n-]c(cc1n2)c(C)c5C=C)C(C)=C4CCC(=O)O)c(CCC(=O)O)c3C.[Zn+2] [ZnPP, zinc protoporphyrin, reference compound]
effect of HO-1 antagonist on neuroprotection by NEPP11 (cerebrocortical neurons): abrogated the neuroprotective effect of NEPP11

C[S+]([O-])CCCCN=C=S (stereo not shown) [sulforaphane, reference compound]
protection of PC12h cells against oxidative glutamate toxicity (PC12h cells): did not protect

CC(C)c1cc2c(c(O)c1O)C1(C(=O)NCCCCCNC(=O)CCCCC3SCC4NC(=O)NC43)CCCC(C)(C)C1CC2 (stereo not shown) [CAB]
site of accumulation at low concentration ([1]; CAB 3 μM): non-neuronal cells were strongly positive | site of accumulation at higher concentration ([1]; CAB 10 μM): neurons were also labeled | level required to protect PC12h cells, relative to CA (PC12h cells): a greater level of CAB than CA was required | ARE activation relative to CA (ARE; 20 μM CAB versus 10 μM CA): to a much lesser extent | activation of the ARE (ARE; PC12h cells, CAB): significantly activated the ARE | binding to IVR Keap1 (Keap1 [2]): very little binding | binding to ΔBTB Keap1 (Keap1 [2]): no binding at all | binding to ΔDGR Keap1 (Keap1 [2]): strong binding | binding to Keap1-WT (73-kDa protein) (Keap1 [3]): observed in cells treated with CAB | adduct formation with BSA [4]: a single band (68 kDa) corresponding to the complex of BSA and CAB was detected

CCN1C(=O)C=CC1=O [NEM, N-ethylmaleimide, reference compound]
outcome for neurons in cortical cultures (GSH): neuronal death after 24 h

Reference: patent US8466311B2, “Neuroprotective compositions and methods” (Sanford-Burnham Medical Research Institute, priority 2006, dated 2013)
